According to patent US20250144125A1 (priority 2021, published 2025):
Read-outs that look alike come from different tables or passages of the source. Marks after values point to notes of the source that are not given here.

What was measured:
MERS-CoV (EMC strain) = experiment: microbe, parasite or virus in culture; assay type: cell-based
[1] = tested on: measles virus (CC strain); experiment: microbe, parasite or virus in culture; assay type: cell-based
[2] = tested on: tacaribe virus (TRVL11573 strain); experiment: microbe, parasite or virus in culture; assay type: cell-based; settings: for EC50: read-out: Tacaribe virus EC50 TRVL 11573 strain
[3] = tested on: influenza A (H1N1) virus (California/07/2009 strain); experiment: microbe, parasite or virus in culture; assay type: cell-based; settings: for EC50: Influenza A virus, H1N1, MDCK
[4] = tested on: human norovirus genogroup I NoV (Norwalk virus replicon) in HG23 cells; experiment: Human norovirus antiviral assay, qRT PCR in HG23 NoV replicon cells; assay type: cell-based; settings: for EC50: Norwalk virus, HG23 Nov replicon cells, qRT PCR intracellular RNA, read-out: EC50 human norovirus
[5] = tested on: chikungunya virus (S27 strain); experiment: microbe, parasite or virus in culture; assay type: cell-based; settings: Chikungunya virus, Vero 76, read-out: EC50 chikungunya virus
[6] = tested on: dengue virus 2 (New Guinea C strain); experiment: microbe, parasite or virus in culture; assay type: cell-based
[7] = tested on: enterovirus-71 (Tainan/4643/98 strain); experiment: organism not typed; assay type: cell-based; settings: Vero 76, read-out: EC50 enterovirus-71
Vero 76 cells = settings: read-out: MERS-CoV CC50 Vero 76; Neutral Red; MERS-CoV screen
in vitro [8] = settings: African green monkey
in vitro [9] = settings: dog
[10] = Cytotoxicity in the human norovirus replicon assay (HG23 cells); settings: human, HG23 Nov replicon cells
in vitro [11] = settings: African green monkey; remark: listed apart in the source
[12] = tested on: yellow fever virus (YFV 17D strain); experiment: microbe, parasite or virus in culture; assay type: cell-based
in vitro [13] = settings: human
Vero cells = settings: African green monkey
[14] = Middle East respiratory syndrome-related coronavirus, Vero 76, read-out: MERS-CoV EC50 EMC strain
[15] = read-out: MERS-CoV EC50 EMC strain
[16] = Measles morbillivirus, Vero 76, read-out: Measles EC50 CC strain
[17] = read-out: Measles EC50 CC strain
[18] = Mammarenavirus tacaribeense, Vero
[19] = read-out: EC50 California/07/2009 strain
[20] = Dengue virus, Huh-7, read-out: EC50 dengue virus 2
[21] = read-out: Yellow fever virus CC50 Huh7, Neutral Red, YFV screen
[22] = read-out: Yellow fever virus CC50 Huh7, Visual, YFV screen
[23] = Yellow fever virus, Huh-7, read-out: Yellow fever virus EC50 YFV 17D strain

## C=Cc1cn([C@@H]2O[C@H](CO)[C@@H](O)[C@H]2O)c2ncnc(CC)c12 [3.1m, 6-Ethyl-7-vinyl-9-β-D-ribofuranosyl-7-deazapurine]
MERS-CoV (EMC strain); [14]
  EC50: 22 µM
MERS-CoV (EMC strain); [15]
  EC50: 14 µM
[1]; [16]
  EC50: 25 µM
[1]; [17]
  EC50: 43 µM
[2]; [18]
  EC50: > 100 µM
[3]; [19]
  EC50: > 100 µM
[4]
  activity against human norovirus in words: no promising activity
  EC50: 3.35 µM
[5]
  EC50: > 100 µM
[6]; [20]
  EC50: 32 µM
[6]; read-out: EC50 dengue virus 2
  EC50: > 19 µM
[7]
  EC50: > 100 µM
Vero 76 cells
  CC50: > 100 µM
Huh7 cells; [21]
  CC50: 20 µM
Huh7 cells; [22]
  CC50: 4.6 µM
In vitro [8]; MERS-CoV CC50 Vero 76
  CC50: > 100 µM
In vitro [9]; CC50 MDCK
  CC50: > 100 µM
[10]
  CC50 at 3 days: 14.6 µM

## CCc1ncnc2c1c(C#CC1CC1)cn2[C@@H]1O[C@H](CO)[C@@H](O)[C@H]1O [3.1n, 6-Ethyl-7-cyclopropylethynyl-9-β-D-ribofuranosyl-7-deazapurine]
MERS-CoV (EMC strain)
  activity against MERS-CoV in words: moderately active with low selectivity index
MERS-CoV (EMC strain); [14]
  EC50: 10 µM
MERS-CoV (EMC strain); [15]
  EC50: 5.7 µM
[1]; [16]
  EC50: 64 µM
[1]; [17]
  EC50: 33 µM
[2]; [18]
  EC50: > 100 µM
[3]; [19]
  EC50: > 100 µM
[4]
  activity against human norovirus in words: no promising activity
  EC50: 0.062 µM
[5]
  EC50: > 100 µM
[6]; [20]
  EC50: 13 µM
[6]; read-out: EC50 dengue virus 2
  EC50: > 8.3 µM
[7]
  EC50: > 100 µM
Vero 76 cells
  CC50: > 100 µM
Huh7 cells; [21]
  CC50: 21 µM
Huh7 cells; [22]
  CC50: 100 µM
In vitro [8]; CC50
  CC50: > 100 µM
In vitro [8]; MERS-CoV CC50 Vero 76
  CC50: 100 µM
In vitro [8]; Measles CC50 Vero 76
  CC50: > 100 µM
In vitro [11]; Tacaribe virus CC50 Vero
  CC50: > 100 µM
In vitro [9]; CC50 MDCK
  CC50: > 100 µM
[10]
  CC50 at 3 days: 0.342 µM

## CCc1ncnc2c1c(I)cn2[C@@H]1O[C@H](CO)[C@@H](O)[C@H]1O [3.1o, 6-Ethyl-7-iodo-9-β-D-ribofuranosyl-7-deazapurine]
MERS-CoV (EMC strain); [14]
  EC50: > 100 µM
MERS-CoV (EMC strain); [15]
  EC50: 68 µM
[1]; [16]
  EC50: 100 µM
[1]; [17]
  EC50: > 100 µM
[2]; [18]
  EC50: > 100 µM
[12]; [23]
  EC50: > 100 µM
[12]; read-out: Yellow fever virus EC50 YFV 17D strain
  EC50: > 85 µM
[3]; [19]
  EC50: > 100 µM
[5]
  EC50: > 100 µM
[6]; [20]
  EC50: > 68 µM
[6]; read-out: EC50 dengue virus 2
  EC50: > 64 µM
[7]
  EC50: > 100 µM
Vero 76 cells
  CC50: > 100 µM
Huh7 cells; human
  CC50: 64 µM
Huh7 cells; [21]
  CC50: 85 µM
In vitro [8]; MERS-CoV CC50 Vero 76
  CC50: > 100 µM
In vitro [13]; CC50
  CC50: 68 µM
In vitro [13]; Yellow fever virus CC50 Huh7
  CC50: > 100 µM
In vitro [9]; CC50 MDCK
  CC50: > 100 µM

## CCc1ncnc2c1c(Cl)cn2[C@@H]1O[C@H](CO)[C@@H](O)[C@H]1O [3.1p, 6-Ethyl-7-chloro-9-β-D-ribofuranosyl-7-deazapurine]
MERS-CoV (EMC strain); [14]
  EC50: 100 µM
MERS-CoV (EMC strain); [15]
  EC50: > 100 µM
[1]; [16]
  EC50: 100 µM
[1]; [17]
  EC50: > 100 µM
[2]; [18]
  EC50: 100 µM
[2]
  EC50: > 100 µM
[12]; [23]
  EC50: > 100 µM
[3]; [19]
  EC50: > 100 µM
[5]
  EC50: > 100 µM
[6]; [20]
  EC50: 32 µM
[6]; read-out: EC50 dengue virus 2
  EC50: > 38 µM
[7]
  EC50: > 100 µM
Vero 76 cells
  CC50: > 100 µM
Huh7 cells; human
  CC50: 38 µM
Huh7 cells; [21]
  CC50: > 100 µM
In vitro [8]; MERS-CoV CC50 Vero 76
  CC50: > 100 µM
In vitro [13]; CC50
  CC50: 68 µM
In vitro [13]; Yellow fever virus CC50 Huh7
  CC50: > 100 µM
In vitro [9]; CC50 MDCK
  CC50: > 100 µM

## CCc1ncnc2c1c(Br)cn2[C@@H]1O[C@H](CO)[C@@H](O)[C@H]1O [3.1q, 6-Ethyl-7-bromo-9-β-D-ribofuranosyl-7-deazapurine]
MERS-CoV (EMC strain); [14]
  EC50: > 100 µM
[1]; [16]
  EC50: > 100 µM
[2]; [18]
  EC50: > 100 µM
[12]; [23]
  EC50: > 100 µM
[3]; [19]
  EC50: > 100 µM
[6]; [20]
  EC50: > 68 µM
[6]; read-out: EC50 dengue virus 2
  EC50: > 47 µM
[7]
  EC50: > 100 µM
Vero 76 cells
  CC50: > 100 µM
Huh7 cells; human
  CC50: 47 µM
Huh7 cells; [21]
  CC50: > 100 µM
In vitro [8]; MERS-CoV CC50 Vero 76
  CC50: > 100 µM
In vitro [13]; CC50
  CC50: 68 µM
In vitro [13]; Yellow fever virus CC50 Huh7
  CC50: > 100 µM
In vitro [9]; CC50 MDCK
  CC50: > 100 µM

## NC(=O)c1ncn([C@@H]2O[C@H](CO)[C@@H](O)[C@H]2O)n1 [Ribavirin, ribavirin, reference compound]
[2]
  Tacaribe virus EC50 TRVL 11573 strain: 7.8^d μg/mL
[2]; [18]
  EC50: 9.2 µg/mL
[3]
  EC50 California/07/2009 strain: 2.4^d μg/mL
[3]; [19]
  EC50: 2.2 µg/mL
[3]; read-out: EC50 Influenza A (H1N1)
  EC50: 10.2 µM
Vero cells
  CC50: > 3600 µM
  Tacaribe virus CC50 Vero: 970^d μg/mL
In vitro [11]; CC50
  CC50: > 2950 µM
In vitro [11]; Tacaribe virus CC50 Vero
  CC50: > 1000 µg/mL
In vitro [9]; CC50
  CC50: > 4100 µM
In vitro [9]; CC50 MDCK
  CC50: > 1000 µg/mL
